One data set has as its system gut transit time. Particulars: in vivo; cited from earlier work.
For data set [1], the system named is functional gastrointestinal disorder (diarrhoea with abdominal pain). Put plainly: Treatment of patients with abdominal pain and diarrhoea with normal release tramadol (case reports). The format is in vivo, human. Particulars: 50 mg normal release twice daily.
Data set [2] relates to patients started on tramadol pain therapy. Particulars: initially when started on tramadol pain therapy; cited from earlier work.
Setting [3] is: Example 2: person with abdominal pain and diarrhoea.

Counter-ions that a name gives are not always drawn.

As to `CN(C)CCCN1c2ccccc2CCc2ccccc21` [imipramine], the “effect on gut transit time” value in the data set with gut transit time is listed as “increase gut transit time”.

As to `COc1cccc(C2(O)CCCCC2CN(C)C)c1` (stereo not shown) [tramadol hydrochloride], the “bowel movements after treatment” value in data set [1] (Example 1: person, long term chronic refractory diarrhoea) was “normal bowel movements”. Also, in data set [1] (Example 1: person, severe persistent abdominal pain), the “abdominal pain after treatment” value is recorded as “absence of pain”.

With `COc1cccc(C2(O)CCCCC2CN(C)C)c1` (stereo not shown) [tramadol, 2-[(Dimethylamino)methyl]-1-(3-methoxyphenyl)cyclohexanol], in data set [1] (setting [3]), the “abdominal pain after treatment” value is on record as “relief of pain” and the “bowel movements after treatment” value is on record as “normal bowel movements”. Further, the side effect entry in data set [1] (Example 2: person) is listed as “some drowsiness”. Besides, the “proportion of patients suffering nausea and vomiting” value in data set [2] was “one third and a half”.
